Each structure is given as a SMILES string. The source made the active and inactive calls. The rule behind the calls is not given here.

For three compounds, Activity and inhibition results are on record in ChEMBL document CHEMBL5370607 (J Med Chem, 2023).

Assay [1] has as its system Rattus norvegicus. Briefly: Antialzheimer activity against scopolamine-induced cognitive impairment in Sprague-Dawley rat assessed as reduction in short-term memory deficits at 1 to 3 mg/kg, ip administered for 30 mins followed by scopolamine induction measured after 30 mins by NOR test. It counts as functional, organism-based. Particulars: dose 1-3 mg/kg, time 60.0 min.

The target in assay [2] is T1, Amine oxidase [flavin-containing] B (Homo sapiens, UniProt P27338).
T1 sequence (P27338 whole entry): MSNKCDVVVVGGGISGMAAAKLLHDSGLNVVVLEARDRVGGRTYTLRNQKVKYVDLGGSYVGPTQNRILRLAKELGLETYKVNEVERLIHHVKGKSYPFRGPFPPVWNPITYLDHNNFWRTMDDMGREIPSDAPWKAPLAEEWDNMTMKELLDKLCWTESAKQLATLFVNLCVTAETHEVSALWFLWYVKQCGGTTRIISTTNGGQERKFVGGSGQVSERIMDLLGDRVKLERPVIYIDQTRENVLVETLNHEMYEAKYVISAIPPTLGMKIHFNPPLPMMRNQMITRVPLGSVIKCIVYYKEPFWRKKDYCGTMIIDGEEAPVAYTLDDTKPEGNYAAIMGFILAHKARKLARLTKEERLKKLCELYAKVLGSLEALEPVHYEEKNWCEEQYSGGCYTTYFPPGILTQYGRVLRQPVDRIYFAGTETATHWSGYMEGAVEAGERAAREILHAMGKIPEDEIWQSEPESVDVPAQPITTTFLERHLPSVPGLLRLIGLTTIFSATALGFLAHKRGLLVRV
Particulars: 0.5 h, time 30 min.

Regarding `COc1cc2c(cc1OC)C(=O)C(CC1CCN(Cc3ccccc3)CC1)C2` (stereo not drawn), the result in assay [1] was Active.
As to `Clc1cccc(CNc2ccnc(N3CCNCC3)c2)c1`, the inhibition (usually the relative decrease from the control value, in per cent) at 1 µM in assay [2] stood at 3%.
`Clc1cccc(CNc2cc(N3CCNCC3)nc3ccccc23)c1`: in assay [2], the inhibition at 1 µM worked out at 7%.
